# Experimental data taken from patent EP0065226A2, “Sulfenamides, process for their preparation, their utilisation as medicines and their preparation” (BAYER AG, priority 1981, dated 1982).
# Molecular target: T1, Plättchenlipoxygenase (Homo sapiens, UniProt P18054)
# T1 construct: der Metabolismus radioaktiv markierter Arachidonsäure an gewaschenen Humanthrombozyten herangezogen; endogenous in cells; host or cells: washed human platelets
# T1 sequence (P18054 1-663): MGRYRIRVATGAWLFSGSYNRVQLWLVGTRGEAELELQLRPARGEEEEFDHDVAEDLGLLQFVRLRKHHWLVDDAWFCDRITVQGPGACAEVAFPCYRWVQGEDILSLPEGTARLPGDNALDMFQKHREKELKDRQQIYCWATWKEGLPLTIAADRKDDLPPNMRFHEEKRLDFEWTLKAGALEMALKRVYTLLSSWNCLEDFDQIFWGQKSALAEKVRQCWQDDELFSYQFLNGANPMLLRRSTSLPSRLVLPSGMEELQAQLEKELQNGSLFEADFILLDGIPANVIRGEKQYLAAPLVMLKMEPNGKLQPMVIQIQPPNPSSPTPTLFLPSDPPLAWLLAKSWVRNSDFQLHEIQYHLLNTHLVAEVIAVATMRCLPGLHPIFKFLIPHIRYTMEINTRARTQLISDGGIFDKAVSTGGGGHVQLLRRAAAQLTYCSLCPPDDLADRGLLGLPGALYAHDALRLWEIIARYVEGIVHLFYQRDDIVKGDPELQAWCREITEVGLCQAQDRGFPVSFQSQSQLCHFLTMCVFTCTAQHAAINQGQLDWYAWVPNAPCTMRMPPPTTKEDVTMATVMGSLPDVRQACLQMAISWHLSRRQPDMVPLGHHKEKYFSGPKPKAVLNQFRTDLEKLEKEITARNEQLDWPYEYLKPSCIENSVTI
# Experiment: Inhibition of platelet lipoxygenase (HETE synthesis), metabolism of radiolabelled arachidonic acid in washed human platelets
# Type: cell-based
# Details: HETE-Synthese, gewaschene Humanthrombozyten; lowest concentration giving at least 50 % inhibition
# Excerpt: Der Nachweis der lipoxygenasehemmenden Eigenschaften der Sulfenamide erfolgt analog der Methode von Bailey et al., J. Biol. Chem. 255, 5996, (1980) und nach Blackwell und Flower, Brostaglandins 16, 417 (1979). Bei dieser Testmethode wird der Metabolismus radioaktiv markierter Arachidonsäure an gewaschenen Humanthrombozyten herangezogen. Bei diesem in vitro Test werden die radioaktiv markierten Metaboliten aus dem Reaktionsansatz extrahiert und dünnschichtchromatographisch getrennt. Das Autoradiogramm wird am Dünnschicht-Scanner ausgewertet. Bei diesen Testbedingungen werden die markierten Metaboliten von der nicht umgesetzten Arachidonsäure getrennt und sind anschließend quantitativ auswertbar. Die Verteilung der Radioaktivität auf die während der Metabolisierung gebildeten Cyclooxygenaseprodukte Thromboxan B2 (TXB2) und 12-Hydroxy-5,8,10-heptadekatriensäure (HHT) bzw. das Lipoxygenaseprodukt 12-Hydroxy-5,8,11,14-eikosatetraensäure (HETE) unter dem Einfluß der Inhibitoren stellt ein Maß für die Hemmung der Enzyme dar.
# Die Lipoxygenasehemmung der erfindungsgemäßen Sulfenamide läßt sich an der Hemmung der HETE-Synthese messen.. Es zeigt sich, daß die Synthese von TXB2und von HHT unbeeinflußt bleibt, während der Arachidonsäureumsatz abnimmt. Wie aus der nachfolgenden Tabelle ersichtlich ist, bewirken die Sulfenamide eine signifikante Hemmung der Plättchenlipoxygenase (HETE-Synthese).
# Hemmung der Plättchenlipoxygenase (HETE-Synthese)
row,SMILES,Minimale effektive Hemmkonzen-zentration (mindestens 50 % Hemmung)
1,Clc1ccc(SNc2ccccn2)cc1 [Beispiel 23],10^-5 g/ml
2,O=C1C(Sc2ccccc2)C(NSc2ccccc2)=NN1c1ccccc1 (stereo not drawn) [Beispiel 24],3e-06 g/mL
3,c1ccc(SNc2nc(-c3ccccc3)ns2)cc1 [Beispiel 12],3e-06 g/mL
4,Clc1ccc(SNc2nc(-c3ccccc3)ns2)cc1 [Beispiel 13],10^-6 g/ml
5,Clc1c(Cl)c(Cl)c(SNc2ncccn2)c(Cl)c1Cl [Beispiel 4],10^-6 g/ml
6,Clc1ccc(SNc2nc[nH]n2)cc1 [Beispiel 10],3e-06 g/mL
7,c1ccc(SNc2ncccn2)cc1 [Beispiel 2],10^-6 g/ml
8,Cc1nsc(NSc2ccccc2)n1 [Beispiel 16],3e-06 g/mL
9,Clc1ccc(SNc2ncccn2)cc1 [Beispiel 5],10^-6 g/ml
10,CC(C)(C)c1ccc(SNc2ncccn2)cc1 [Beispiel 6],10^-6 g/ml
11,Cc1nc(NSc2ccccc2)ns1 [Beispiel 18],10^-6 g/ml
12,Cc1nsc(NSc2ccc(Cl)cc2)n1 [Beispiel 17],10^-6 g/ml
13,CCCc1nsc(NSc2ccc(Cl)cc2)n1 [Beispiel 20],3e-06 g/mL
14,CCCc1nsc(NSc2ccccc2)n1 [Beispiel 19],3e-06 g/mL

# Tested on: Leukozytenmigration
# Experiment: Inhibition of leukocyte migration, drug-soaked sponge implanted under the dorsal skin of rats
# Type: in vivo, Ratten
# Details: Dosis, lokal 10 mg/Ratte; sponge soaked with compound under the dorsal skin
# Excerpt: Die erfindungsgemäßen Sulfenamide sind auch […] wirksam. Diese Wirkung wird durch die Messung der Hemmung der Leukozytenmigration nach an sich bekannten Methoden nachgewiesen (vgl. Higgs et al., Biochemical Pharmacology 28, 1959 (1979) und Eur. J. Pharmacol. 66, 81 (1980)). In der nachfolgenden Tabelle 2 sind die Wirkungen einiger beispielhafter Sulfenamide nach lokaler Applikation, durch Einführen eines mit Wirkstoff getränkten Schwämmchens unter die Rückenhaut von Ratten, zusammengefaßt.
row,SMILES,Hemmung der Leukozyten-migration (Kontrolle = 0 %)
1,Clc1ccc(SNc2nnc(N3CCOCC3)s2)cc1 [Beispiel 37],22%
2,FC(F)(F)c1cc(SNc2nc[nH]n2)ccc1Cl [Beispiel 28],29%
3,c1ccc(SNc2nc(-c3ccccc3)ns2)cc1 [Beispiel 12],35%
4,Cc1nnc(NSc2ccccc2)s1 [Beispiel 25],80%
5,c1ccc(SNc2ncccn2)cc1 [Beispiel 2],45%
6,Cc1nsc(NSc2ccccc2)n1 [Beispiel 16],67%
7,c1ccc(SNc2nc[nH]n2)cc1 [Beispiel 11],76%
8,COC(=O)c1ccc(SNc2nc[nH]n2)cc1 [Beispiel 30],31%
9,Cc1nsc(NSc2ccc(Cl)cc2)n1 [Beispiel 17],53%
10,Cc1nnc(NSc2ccc(Cl)cc2)s1 [Beispiel 39],60%
